Measurements published in EP0906100B1, “USE OF 5-HT 1A? RECEPTOR ANTAGONISTS FOR THE TREATMENT OF URINARY INCONTINENCE” (RECORDATI S.A., priority 1996, dated 1997).
Where two headings read alike, the source gives them in different places.

Key:
[1] = tested on: cystometric parameters (bladder volume capacity, micturition pressure); test: Cystometric parameters (BVC, MP) in the conscious rat; type: in vivo, rats; settings: for BVC before treatment / MP before treatment: baseline; for BVC before treatment / MP before treatment / BVC after treatment / MP after treatment: mean±S.E.; for ED50: Rattus norvegicus, read-out: approximate ED50 value, reduction of MP
Protocol: Male Sprague Dawley rats (Crl: CD° BR) weighing 250-350 g were used. The animals were housed with free access to food and water and maintained on a forced 12 h alternating light-dark cycle at 22-24°C for at least one week, except during performance of the experiment.
An approximately 10 mm long midline incision was made in the shaved and cleaned abdominal wall. The urinary bladder was gently freed from adhering tissues, emptied, and then cannulated, via an incision at the dome, with a polyethylene cannula (Portex PP30), which was permanently sutured with silk thread. The cannula was exteriorized through a subcutaneous tunnel in the retroscapular area, where it was connected with a plastic adapter to avoid the risk of removal by the animal. For intravenous (i.v.) injection of test compounds, a PE 50 polyethylene tubing filled with physiological saline was inserted into the jugular vein and exteriorized in the retroscapular area.
Since cystometrographic parameters have been reported to be influenced by the time elapsed after catheter implantation […].
On the day of the experiment, the rats were placed in Bollman's cages; after a stabilization period of 20 min, the free tip of the bladder catheter was connected through a T-shaped tube to a pressure transducer (Bentley T 800/Marb P 82) and to a peristaltic pump (Gilson minipuls 2) for a continuous infusion, at the constant rate of 0.1 ml/min, of saline solution into the urinary bladder. The intraluminal pressure signal during infusion was continuously recorded on a polygraph (Battaglia Rangoni KO 380 with ADC1/T amplifier). Two urodynamic parameters were evaluated: bladder volume capacity (BVC) and micturition pressure (MP). BVC (in ml) is defined as the minimum volume infused after which detrusor contraction (followed by micturition) occurs. MP (in mmHg) is defined as the maximal intravesical pressure induced by the contraction of detrusor during micturition. Basal BVC and MP values were calculated as the means of the first two recorded cystometrograms. At this point, the infusion was interrupted and the test compounds were administered. Fifteen minutes after intravenous administration, or one hour after oral drug administration, two additional cystometrograms were recorded in each animal and the mean values of the two cystometrographic parameters were calculated.
The statistical significance of the differences in urodynamic parameter values was evaluated by Student's t test for paired data. Only changes showing a probability P<0.01 were considered to be significant.

[2] = tested on: pre-synaptic 5-HT1A receptor; test: Antagonism of hypothermia induced by 8-OH-DPAT in mice; type: in vivo; settings: s.c., hypothermia induced by 0.5 mg/kg s.c. 8-OH-DPAT
Protocol: Antagonism of hypothermia induced by 8-OH-DPAT in mice:
The antagonistic effect of 5-HT1A receptor antagonists on hypothermia induced by 8-OH-DPAT was evaluated by the method of Moser (Moser, Eur. J. Pharmacol., 193, 165, 1991) with minor modifications.
Male CD-1 mice (28-38 g) obtained from Charles River (Italy) were housed in a climate-controlled room (temperature 22 ± 2°C; humidity 55 ± 15%) and maintained on a 12 h light/dark cycle with free access to food and water. On the day of experiment, mice were placed singly in clear plastic boxes under the same ambient conditions. Body temperature was measured by the insertion of a temperature probe (Termist TM-S, LSI) into the rectum to a depth of 2 cm. Rectal temperature was measured immediately prior to subcutaneous injection of the test compound and 30 min later. All animals then received 8-OH-DPAT (0.5 mg/kg s.c.) and their temperature was measured 30 min later. For each animal, temperature changes were calculated with respect to pretreatment values and the mean values were calculated for each treatment group.

5-HT1A receptor = target: T1, 5-HT1A receptor (Rattus norvegicus, UniProt P19327); test: [3H]8-OH-DPAT binding (5HT1A receptors), rat hippocampi; settings: 1 nM [3H]8-OH-DPAT, read-out: Binding affinity for the 5-HT1A receptor, Ki
T1 construct: Rat hippocampi were homogenized in 50 volumes of ice-cold 50 mM Tris-HCl pH 7.4; from tissue; host or cells: rat hippocampus membranes
T1 sequence (P19327 1-422): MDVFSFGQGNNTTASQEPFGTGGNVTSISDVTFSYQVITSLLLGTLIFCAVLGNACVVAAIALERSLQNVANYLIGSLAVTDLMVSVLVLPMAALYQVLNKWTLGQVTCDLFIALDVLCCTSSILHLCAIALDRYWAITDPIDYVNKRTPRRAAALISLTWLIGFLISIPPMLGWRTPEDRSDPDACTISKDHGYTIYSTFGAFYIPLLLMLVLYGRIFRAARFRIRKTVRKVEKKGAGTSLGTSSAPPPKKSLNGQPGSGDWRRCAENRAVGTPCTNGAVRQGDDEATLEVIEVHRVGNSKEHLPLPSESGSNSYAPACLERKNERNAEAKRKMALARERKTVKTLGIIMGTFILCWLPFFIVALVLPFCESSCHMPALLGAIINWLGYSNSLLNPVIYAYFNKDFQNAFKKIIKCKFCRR
Protocol: [^3H]8-OH-DPAT binding (5HT1A receptors):
Rat hippocampi were homogenized in 50 volumes of ice-cold 50 mM Tris-HCl pH 7.4. The homogenates were centrifuged at 48,000 x g for 10 minutes, and the pellets were resuspended in the same volume of ice-cold buffer, incubated for 10 minutes at 37°C, centrifuged and resuspended two more times. The final pellets obtained were resuspended in 100 volumes of 50 mM Tris-HCl, pH 7.4, containing 0.1 % ascorbic acid and 10 µM pargyline. 1 ml samples were incubated for 30 min at 25°C with 1 nM [^3H]8-OH-DPAT, in absence or presence of different concentrations (10^-5 to 10^-10 M) of the test compound. Non-specific binding was determined in the presence of 10 µM 5-HT. The incubations were terminated by rapid filtration through Whatman GF/B filters using a Brandel cell harvester, after which the filters were washed with 3 x 3 ml of ice-cold buffer. The radioactivity retained on the filters was determined by liquid scintillation counting.

[3] = 100 µg/kg i.v., 15 min after injection
[4] = 300 µg/kg i.v., 15 min after injection
[5] = 1000 µg/kg i.v., 15 min after injection
[6] = 1 mg/kg p.o., 1 hour after oral administration
[7] = 2000 µg/kg i.v., 15 min after injection
[8] = 3 mg/kg p.o., 1 hour after oral administration
[9] = 10 mg/kg p.o., 1 hour after oral administration
[10] = conscious rats, i.v., NAN-190 up to the highest administrable dose of 300 µg/kg

`COc1ccccc1N1CCN(CCN(C(=O)C2CCCCC2)c2ccccn2)CC1` [Compound A, N-{2-[4-(2-methoxyphenyl)-1-piperazinyl]-ethyl}-N-(2-pyridyl)-cyclohexanecarboxamide] was tested, and the BVC before treatment ([1]; 100 µg/kg i.v. group) was 0.65 ± 0.06 mL, the MP before treatment ([1]; 100 µg/kg i.v. group) was 93.0±8.3 mmHg and the BVC % change [1, 3] was “+4%”. It also gave an MP % change [1, 3] of -10%, a BVC after treatment [1, 3] of 0.66 ± 0.08 mL and an MP after treatment [1, 3] of 83.8±8.7 mmHg. The BVC before treatment ([1]; 300 µg/kg i.v. group) was 0.47 ± 0.05 mL, the MP before treatment ([1]; 300 µg/kg i.v. group) was 78.7±5.8 mmHg and the BVC % change [1, 4] was “+32%”. It also gave an MP % change [1, 4] of -11%, a BVC after treatment [1, 4] of 0.63 ± 0.06 mL and an MP after treatment [1, 4] of 70.0±4.1 mmHg. The BVC before treatment ([1]; 1000 µg/kg i.v. group) was 0.64 ± 0.05 mL, the MP before treatment ([1]; 1000 µg/kg i.v. group) was 104.6±6.4 mmHg and the BVC % change [1, 5] was “+29%”. The MP % change [1, 5] was -13%, the BVC after treatment [1, 5] was 0.83 ± 0.07 mL and the MP after treatment [1, 5] was 91.0±6.3 mmHg. For the same compound, the BVC before treatment ([1]; 1 mg/kg p.o. group) was 0.52 ± 0.07 mL, the MP before treatment ([1]; 1 mg/kg p.o. group) was 96.0±8.4 mmHg and the MP % change [1, 6] was -2%. It also gave a BVC after treatment [1, 6] of 0.60 ± 0.08 mL, an MP after treatment [1, 6] of 93.7±7.2 mmHg and a BVC before treatment ([1]; 2000 µg/kg i.v. group) of 0.48 ± 0.04 mL. For the same compound, the MP before treatment ([1]; 2000 µg/kg i.v. group) was 101.8±10.9 mmHg, the BVC % change [1, 7] was “+32%” and the MP % change [1, 7] was -20%. For the same compound, the BVC after treatment [1, 7] was 0.63 ± 0.05 mL, the MP after treatment [1, 7] was 81.5±14.1 mmHg and the BVC before treatment ([1]; 3 mg/kg p.o. group) was 0.67 ± 0.07 mL. The MP before treatment ([1]; 3 mg/kg p.o. group) was 112.5±6.5 mmHg, the BVC % change [1, 8] was “+35%” and the MP % change [1, 8] was -4%. For the same compound, the BVC after treatment [1, 8] was 0.91 ± 0.10 mL, the MP after treatment [1, 8] was 107.6±9.2 mmHg and the BVC before treatment ([1]; 10 mg/kg p.o. group) was 0.54 ± 0.06 mL. For the same compound, the MP before treatment ([1]; 10 mg/kg p.o. group) was 90.2±7.1 mmHg, the BVC % change [1, 9] was “+37%” and the MP % change [1, 9] was -4%. The BVC after treatment [1, 9] was 0.73 ± 0.10 mL, the MP after treatment [1, 9] was 86.6±7.6 mmHg and the “effect on MP (in words)” value [1, 10] was “inactive”.
In the case of `O=C(C1CCCCC1)N(CCN1CCN(c2cccc3[nH]ccc23)CC1)c1ccccn1` [Compound B, N-{2-[4-(4-Indolyl)-1-piperazinyl]-ethyl}-N-(2-pyridyl)-cyclohexanecarboxamide], the “ID50 (95%) C.L., antagonistic activity for the pre-synaptic 5-HT1A receptor” value [2] is reported as 1.9 (1.0-3.7) µg/kg s.c and the Ki (5-HT1A receptor) is reported as 0.13 nM.
With `CCN(CC)CC#CCOC(=O)C(O)(c1ccccc1)C1CCCCC1` (centres unmarked) [Oxybutynin, oxybutynin] the BVC before treatment ([1]; 100 µg/kg i.v. group) was 0.82 ± 0.15 mL, the MP before treatment ([1]; 100 µg/kg i.v. group) was 95.2±9.2 mmHg and the BVC % change [1, 3] was “+9%”. The MP % change [1, 3] was -19%, the BVC after treatment [1, 3] was 0.89 ± 0.18 mL and the MP after treatment [1, 3] was 77.4±10.3 mmHg. It also gave a BVC before treatment ([1]; 300 µg/kg i.v. group) of 0.83 ± 0.13 mL, an MP before treatment ([1]; 300 µg/kg i.v. group) of 82.3±8.7 mmHg and a BVC % change [1, 4] of 0%. It also gave an MP % change [1, 4] of -39%, a BVC after treatment [1, 4] of 0.83 ± 0.12 mL and an MP after treatment [1, 4] of 50.5±6.3 mmHg. The BVC before treatment ([1]; 1000 µg/kg i.v. group) was 0.94 ± 0.19 mL, the MP before treatment ([1]; 1000 µg/kg i.v. group) was 110.9±10.2 mmHg and the BVC % change [1, 5] was “+7%”. For the same compound, the MP % change [1, 5] was -73%, the BVC after treatment [1, 5] was 1.00 ± 0.18 mL and the MP after treatment [1, 5] was 29.6±5.6 mmHg. For the same compound, the BVC before treatment ([1]; 1 mg/kg p.o. group) was 0.56 ± 0.11 mL, the MP before treatment ([1]; 1 mg/kg p.o. group) was 92.1±13.3 mmHg and the BVC % change [1, 6] was “+31%”. For the same compound, the MP % change [1, 6] was -16%, the BVC after treatment [1, 6] was 0.74 ± 0.11 mL and the MP after treatment [1, 6] was 77.3±9.8 mmHg. The BVC before treatment ([1]; 3 mg/kg p.o. group) was 0.54 ± 0.07 mL, the MP before treatment ([1]; 3 mg/kg p.o. group) was 82.1±5.1 mmHg and the BVC % change [1, 8] was “+18%”. The MP % change [1, 8] was -49%, the BVC after treatment [1, 8] was 0.63 ± 0.13 mL and the MP after treatment [1, 8] was 42.1±5.1 mmHg. For the same compound, the BVC before treatment ([1]; 10 mg/kg p.o. group) was 0.55 ± 0.08 mL, the MP before treatment ([1]; 10 mg/kg p.o. group) was 98.3±9.0 mmHg and the BVC % change [1, 9] was “+27%”. The MP % change [1, 9] was -68%, the BVC after treatment [1, 9] was 0.70 ± 0.11 mL and the MP after treatment [1, 9] was 31.8±3.9 mmHg. For the same compound, the ED50 ([1]; iv, conscious rats, i.v.) was ~0.4 mg/kg, the ED50 ([1]; conscious rats, oral administration) was ~4 mg/kg and the “effect on BVC (in words)” value [1, 10] was “inactive”.
